One block for each molecule: values may come before it.
How the values were obtained:
[1] = biological target: T1, Human PPARα (Homo sapiens, UniProt Q07869); experiment: Activation of human PPARα, GAL4 chimeric receptor luciferase reporter assay in transiently transfected 293-T cells; assay type: cell-based; conditions: for Photon number (×10^4) / Increased multiple vs control: compounds 10 μM, PPARα; for Photon number (×10^4): luciferase 24 h after administration; for Increased multiple vs control: vs DMSO control
T1 construct: expressed in transfected cells; host or cells: 293-T cells, transient transfection
T1 sequence (Q07869 239-466 limits assumed): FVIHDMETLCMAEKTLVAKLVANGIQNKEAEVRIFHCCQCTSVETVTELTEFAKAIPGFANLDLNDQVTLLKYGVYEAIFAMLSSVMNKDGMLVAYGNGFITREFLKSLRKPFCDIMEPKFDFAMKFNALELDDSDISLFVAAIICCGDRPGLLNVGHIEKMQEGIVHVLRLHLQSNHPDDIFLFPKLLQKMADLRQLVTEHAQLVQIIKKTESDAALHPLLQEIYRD
Experimental: (§1) The compounds were screened with respect to their functional effect of instantaneous transfection in 293-T cells, so that their capabilities of activating PPAR subtypes were determined. A chimeric receptor system as established in advance was used to compare the influence of receptor subtypes on the transcription activity of same target gene. Human PPARα and PPARγ ligand-binding domains were fused respectively with yeast transcription factor GAL4 DNA-binding domains, and then linked to expression vector pM of mammal, to thereby construct two plasmids pM-hPPARα/GAL4 and pM-PPARγ/GAL4. GAL4 DNA-binding area was linked to pB4-tk-luc, to thereby construct pB4-RES-tk-luc (a firefly luciferase reporter gene comprising GAL4 DNA-binding site). pRL-CMV-Rluc was used as an internal control to normalize transfection efficiency and endogenous influence.
293-T cells were incubated in a 48-well plate at a cell density of 2-4×10^4/well, using a phenol red-free and antibiotic-free 1640 medium containing 10% defatted fetal calf serum (FCS). After culturing for 48 h, the medium was replaced with a phenol red-free and antibiotic-free 1640 medium containing 5% defatted FCS, and then three plasmids pM-hPPAR/GAL4, pB4-RES-tk-luc and pRL-CMV-Rluc pertaining to two subtypes were respectively co-transfected into the 293-T cells. The strength of luciferase was measured at the time of 24 h after administration, with 0.2% DMSO as a blank control.

[2] = biological target: T2, Human PPARγ (Homo sapiens, UniProt P37231); experiment: Activation of human PPARγ, GAL4 chimeric receptor luciferase reporter assay in transiently transfected 293-T cells; assay type: cell-based
T2 construct: expressed in transfected cells; host or cells: 293-T cells, transient transfection
T2 sequence (P37231 238-503 limits assumed): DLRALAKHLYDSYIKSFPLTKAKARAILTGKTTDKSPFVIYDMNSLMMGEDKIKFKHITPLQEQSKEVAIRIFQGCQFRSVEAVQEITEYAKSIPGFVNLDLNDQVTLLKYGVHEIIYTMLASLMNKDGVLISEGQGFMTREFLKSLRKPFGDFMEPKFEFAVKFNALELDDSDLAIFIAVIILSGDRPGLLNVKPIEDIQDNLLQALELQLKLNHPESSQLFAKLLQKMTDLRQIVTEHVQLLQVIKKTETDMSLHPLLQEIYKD
Source text: as §1, with “A” for “The compounds were screened with respect to their functional effect of instantaneous transfection in 293-T cells, so that their capabilities of activating PPAR subtypes were determined. A”
The strength of luciferase was measured at the time of 24 h after administration, with 0.2% DMSO as a blank control.

Photon number (×10^4) [1]: 13.2 ×10^4
Increased multiple vs control [1]: 6.3
melting point: 218 to 220 °C
SMILES: Cc1oc(-c2ccccc2)nc1CCOc1ccc(C[C@@H](C(=O)O)N2CCN(c3ccccc3)CC2)cc1 [Example 8, (2S)-3-{4-[2-(5-methyl-2-phenyl-1,3-oxazol-4-yl)-ethoxy]-phenyl}-2-(4-phenyl-piperazin-1-yl)-propionic acid]

melting point: 170 to 172 °C
SMILES: Cc1oc(-c2ccccc2)nc1CCOc1ccc(C[C@@H](C(=O)O)N2CCN(S(=O)(=O)c3ccccc3F)CC2)cc1 [Example 3, (2S)-2-[4-(2-fluoro-benzenesulfonyl)-piperazin-1-yl]-3-{4-[2-(5-methyl-2-phenyl-1,3-oxazol-4-yl)-ethoxy]-phenyl}-propionic acid]

Photon number (×10^4) [1]: 6.8 ×10^4
Increased multiple vs control [1]: 3.2
Photon number (×10^4) ([2]; compounds 10 μM, PPARγ, luciferase 24 h after administration): 2.8 ×10^4
Increased multiple vs control ([2]; compounds 10 μM, PPARγ, vs control): 2.0
melting point: 198 to 200 °C
SMILES: Cc1oc(-c2ccccc2)nc1CCOc1ccc(C[C@@H](C(=O)O)N2CCN(S(=O)(=O)c3ccc(F)cc3)CC2)cc1 [Example 4, (2S)-2-[4-(4-fluoro-benzenesulfonyl)-piperazin-1-yl]-3-{4-[2-(5-methyl-2-phenyl-1,3-oxazol-4-yl)-ethoxy]-phenyl}-propionic acid]

EC50 ([1]; activation of PPARα): 1050 nM
EC50 ([2]; activation of PPARγ): 3200 nM
melting point: 171 to 173 °C
SMILES: Cc1oc(-c2ccccc2)nc1CCOc1ccc(C[C@@H](C(=O)O)N2CCN(S(=O)(=O)c3ccccc3[N+](=O)[O-])CC2)cc1 [Example 6, (2S)-2-[4-(2-nitro-benzenesulfonyl)-piperazin-1-yl]-3-{4-[2-(5-methyl-2-phenyl-1,3-oxazol-4-yl)-ethoxy]-phenyl}-propionic acid]

The next lines start with the molecule.

SMILES: Cc1cccc(N2CCN([C@@H](Cc3ccc(OCCc4nc(-c5ccccc5)oc4C)cc3)C(=O)O)CC2)c1 [Example 1, (2S)-3-{4-[2-(5-methyl-2-phenyl-1,3-oxazol-4-yl)-ethoxy]-phenyl}-2-(4-m-tolyl-piperazin-1-yl)-propionic acid]
Photon number (×10^4) [1]: 11.3 ×10^4
Increased multiple vs control [1]: 5.3

SMILES: Cc1oc(-c2ccccc2)nc1CCOc1ccc(C[C@@H](C(=O)O)N2CCN(c3cccc(Cl)c3)CC2)cc1 [Example 7, (2S)-2-[4-(m-chloro-phenyl)-piperazin-1-yl]-3-{4-[2-(5-methyl-2-phenyl-1,3-oxazol-4-yl)-ethoxy]-phenyl}-propionic acid]
melting point: 138 to 139 °C

SMILES: Cc1oc(-c2ccccc2)nc1CCOc1ccc(C[C@@H](C(=O)O)N2CCN(c3ccccc3)CC2)cc1Br [Example 10, (2S)-3-{3-bromo-4-[2-(5-methyl-2-phenyl-1,3-oxazol-4-yl)-ethoxy]-phenyl}-2-(4-phenylpiperazin-1-yl)-propanoic acid]
melting point: 220 to 222 °C
